Test results: patent publication US11655235B2, “Pyrrolidine and piperidine compounds” (YUHAN CORPORATION, priority 2019, dated 2023)

Legend:
DPP4 = DPP4 (Homo sapiens, UniProt P27487); experiment: DPP4 inhibition, fluorogenic substrate H-Gly-Pro-AMC; assay type: biochemical; set-up: purchased R&D Systems; settings: for inhibition at 1 µM: read-out: hDPP4 inhibition % at 1 μM
Method: The compounds according to the present technology were evaluated in terms of the inhibitory effect on the activity of dipeptidyl peptidases including FAP by using a substrate producing fluorescent substances upon enzymatic decomposition. The test was conducted at 25° C. to get a final reaction volume of 100 μL in a 96 black well plate. […] Briefly, the test compounds were dissolved in dimethyl sulfoxide (DMSO) at a concentration of 20 mM and then subjected to serial dilution, thereby creating an 8 point curve. As for the control group, a 6 point curve created by serial dilution of Talabostat in the same buffer solution was used. Fluorescence intensity was measured using a microplate reader (Flexstation3, Molecular Devices) under the wavelength condition exciting at 380 nm and reading the emission at 460 nm. The inhibitory effect of the test compounds was measured as a decrease (%) in the signal rate as compared to the control group without any inhibitor. Data was fixed to a logistic model with four variables and IC50 value was calculated using GraphPad Prism program. As for recombinant human DPP4 (R&D Systems), 25 mM tris (pH 8.0) buffer as a buffer solution and H-Gly-Pro-AMC (Bachem) as a substrate were used. As for recombinant human DPP7 (R&D Systems), 25 mM MES (pH 6.0) buffer as a buffer solution and Lys-Pro-AMC (Bachem) as a substrate were used. As for recombinant human DPP8 (PBS Bioscience), as a buffer solution, a 10 mM tris (pH 7.4) buffer comprising 10 mM of magnesium chloride and 0.05% of Tween 20, and Z-Ala-Pro-AMC (BPS Bioscience) as a substrate were used. As for recombinant human DPP9 (R&D Systems), a 25 mM tris (pH 8.0) buffer as a buffer solution and H-Gly-Pro-AMC (Bachem) as a substrate were used. As for recombinant human PREP (R&D System), as a buffer solution, a 25 mM tris (pH 7.5) buffer comprising 250 mM sodium chloride and 2.5 mM DTT (Dithiolthreitol), and Z-Gly-Pro-AMC (Bachem) as a substrate were used. The evaluation was made by using 10 ng of DPP4, PDD7, and PREP, 20 ng of DPP8, and 50 ng of DPP9 based on the final reaction. In the evaluation of DPP4, the test compounds were subjected to serial dilution in a buffer under the condition containing up to 0.1% of DMSO. In the evaluation of DPP7, DPP8, DPP9, and PREP, the test compounds were subjected to serial dilution in each buffer under the condition containing up to 0.5% of DMSO.

Recombinant human FAP = biological target: T1, Recombinant human FAP (Homo sapiens, UniProt Q12884); experiment: FAP inhibition, fluorogenic substrate Z-Gly-Pro-AMC; assay type: biochemical; settings: for IC50: 25° C., Z-Gly-Pro-AMC substrate; for inhibition at 1 µM: read-out: hFAP inhibition % at 1 μM
T1 construct: purchased R&D systems
T1 sequence (Q12884 1-760): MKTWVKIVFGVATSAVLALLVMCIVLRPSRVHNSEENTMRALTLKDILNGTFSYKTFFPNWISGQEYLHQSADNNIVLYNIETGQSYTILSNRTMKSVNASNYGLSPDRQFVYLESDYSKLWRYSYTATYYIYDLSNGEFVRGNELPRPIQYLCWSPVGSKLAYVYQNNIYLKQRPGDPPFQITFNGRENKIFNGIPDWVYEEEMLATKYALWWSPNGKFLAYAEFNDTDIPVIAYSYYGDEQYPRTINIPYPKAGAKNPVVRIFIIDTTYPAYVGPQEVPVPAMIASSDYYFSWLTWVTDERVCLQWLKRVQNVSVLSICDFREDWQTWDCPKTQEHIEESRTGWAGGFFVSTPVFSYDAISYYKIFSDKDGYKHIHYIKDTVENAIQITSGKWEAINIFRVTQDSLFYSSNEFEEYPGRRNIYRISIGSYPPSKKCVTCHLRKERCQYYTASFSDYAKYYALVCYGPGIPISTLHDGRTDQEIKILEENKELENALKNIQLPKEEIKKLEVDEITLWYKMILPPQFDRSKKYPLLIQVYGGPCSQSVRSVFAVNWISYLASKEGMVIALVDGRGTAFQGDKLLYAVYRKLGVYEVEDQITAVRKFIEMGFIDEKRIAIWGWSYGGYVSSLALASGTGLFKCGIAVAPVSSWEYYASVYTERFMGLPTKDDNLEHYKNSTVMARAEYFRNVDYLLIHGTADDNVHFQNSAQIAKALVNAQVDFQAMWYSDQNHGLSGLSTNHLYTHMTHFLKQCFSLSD
Method: The compounds according to the present technology were evaluated in terms of the inhibitory effect on the activity of dipeptidyl peptidases including FAP by using a substrate producing fluorescent substances upon enzymatic decomposition. The test was conducted at 25° C. to get a final reaction volume of 100 μL in a 96 black well plate. […] Briefly, the test compounds were dissolved in dimethyl sulfoxide (DMSO) at a concentration of 20 mM and then subjected to serial dilution, thereby creating an 8 point curve. As for the control group, a 6 point curve created by serial dilution of Talabostat in the same buffer solution was used. Fluorescence intensity was measured using a microplate reader (Flexstation3, Molecular Devices) under the wavelength condition exciting at 380 nm and reading the emission at 460 nm. The inhibitory effect of the test compounds was measured as a decrease (%) in the signal rate as compared to the control group without any inhibitor. Data was fixed to a logistic model with four variables and IC50 value was calculated using GraphPad Prism program. Recombinant human FAP (R&D systems) was diluted with 50 mM tris (pH 7.5) buffer comprising 1 M of sodium chloride and 1 mg/ml of bovine serum albumin (BSA) to be 10 ng per final reaction. The test compounds were subjected to serial dilution in a buffer under the condition containing up to 0.1% of DMSO. Z-Gly-Pro-AMC (Bachem) was used as a substrate. By dissolving in DMSO and then diluting in the same buffer, the substrate was added to be […] per final reaction.

DPP4, sequence (P27487 whole entry): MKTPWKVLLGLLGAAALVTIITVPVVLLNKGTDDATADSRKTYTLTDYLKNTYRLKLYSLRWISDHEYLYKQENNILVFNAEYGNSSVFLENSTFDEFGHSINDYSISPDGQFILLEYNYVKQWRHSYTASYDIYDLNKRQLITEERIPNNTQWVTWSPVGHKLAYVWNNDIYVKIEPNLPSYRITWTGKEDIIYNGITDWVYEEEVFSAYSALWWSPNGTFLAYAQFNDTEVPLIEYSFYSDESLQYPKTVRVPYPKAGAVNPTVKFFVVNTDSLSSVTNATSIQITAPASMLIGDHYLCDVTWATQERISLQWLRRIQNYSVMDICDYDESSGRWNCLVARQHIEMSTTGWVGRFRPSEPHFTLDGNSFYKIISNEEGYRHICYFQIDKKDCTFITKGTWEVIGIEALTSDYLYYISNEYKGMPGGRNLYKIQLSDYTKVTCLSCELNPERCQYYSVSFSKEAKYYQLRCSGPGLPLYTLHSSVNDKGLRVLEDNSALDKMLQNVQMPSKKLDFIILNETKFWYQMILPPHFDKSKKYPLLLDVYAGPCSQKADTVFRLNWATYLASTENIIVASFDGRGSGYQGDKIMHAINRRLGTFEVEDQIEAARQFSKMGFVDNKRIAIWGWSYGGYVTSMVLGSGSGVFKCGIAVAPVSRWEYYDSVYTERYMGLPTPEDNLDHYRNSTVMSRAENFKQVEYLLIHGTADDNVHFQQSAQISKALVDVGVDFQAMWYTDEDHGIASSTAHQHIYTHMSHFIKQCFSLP

hDPP4 inhibition % at 1 μM (DPP4) | IC50 (Recombinant human FAP) | inhibition at 1 µM (Recombinant human FAP) | inhibition at 1 µM (DPP4) | Compound
No inhibition** | 191 nM |  |  | N#C[C@@H]1CCCN1C(=O)CN1CC[C@H](NC(=O)c2cccc3cccnc23)C1 [Example 34, N—((S)-1-(2-((S)-2-cyanopyrrolidin-1-yl)-2-oxoethyl)pyrrolidin-3-yl)quinoline-8-carboxamide]
No inhibition** |  | 76.1% |  | N#C[C@@H]1CCCN1C(=O)CN1CC[C@H](NC(=O)c2nccc3ccccc23)C1 [Example 35, N—((S)-1-(2-((S)-2-cyanopyrrolidin-1-yl)-2-oxoethyl)pyrrolidin-3-yl)isoquinoline-1-carboxamide]
No inhibition** | 170 nM |  |  | N#C[C@@H]1CCCN1C(=O)CN1CC[C@H](NC(=O)Cc2cccc3ccccc23)C1 [Example 38, N—((S)-1-(2-((S)-2-cyanopyrrolidin-1-yl)-2-oxoethyl)pyrrolidin-3-yl)-2-(naphthalen-1-yl)acetamide]
 |  | 68.1% | 0.4% | N#C[C@@H]1CCCN1C(=O)CN1CC[C@H](NC(=O)c2ccccc2-c2ccccc2)C1 [Example 39, N—((S)-1-(2-((S)-2-cyanopyrrolidin-1-yl)-2-oxoethyl)pyrrolidin-3-yl)-[1,1′-biphenyl]-2-carboxamide]
 | 38.3 nM |  | 3.2% | N#C[C@@H]1CCCN1C(=O)CN1CC[C@H](NC(=O)c2cc3ccccc3o2)C1 [Example 40, N—((S)-1-(2-((S)-2-cyanopyrrolidin-1-yl)-2-oxoethyl)pyrrolidin-3-yl)benzofuran-2-carboxamide]
 |  | 84.6% | 1.4% | Cc1oc2ccccc2c1C(=O)N[C@H]1CCN(CC(=O)N2CCC[C@H]2C#N)C1 [Example 42, N—((S)-1-(2-((S)-2-cyanopyrrolidin-1-yl)-2-oxoethyl)pyrrolidin-3-yl)-2-methylbenzofuran-3-carboxamide]
 | 30.1 nM |  | 1.2% | Cc1cccc2c(C(=O)N[C@H]3CCN(CC(=O)N4CCC[C@H]4C#N)C3)coc12 [Example 45, N—((S)-1-(2-((S)-2-cyanopyrrolidin-1-yl)-2-oxoethyl)pyrrolidin-3-yl)-7-methylbenzofuran-3-carboxamide]
 | 18.8 nM |  | 3.7% | COc1cccc2c(C(=O)N[C@H]3CCN(CC(=O)N4CCC[C@H]4C#N)C3)coc12 [Example 47, N—((S)-1-(2-((S)-2-cyanopyrrolidin-1-yl)-2-oxoethyl)pyrrolidin-3-yl)-7-methoxybenzofuran-3-carboxamide]
No inhibition** | 16.4 nM |  |  | N#C[C@@H]1CCCN1C(=O)CN1CC[C@H](NC(=O)c2coc3c(F)cccc23)C1 [Example 50, N—((S)-1-(2-((S)-2-cyanopyrrolidin-1-yl)-2-oxoethyl)pyrrolidin-3-yl)-7-fluorobenzofuran-3-carboxamide]
 | 13.6 nM |  | 0.5% | Cc1ccc2occ(C(=O)N[C@H]3CCN(CC(=O)N4CCC[C@H]4C#N)C3)c2c1 [Example 52, N—((S)-1-(2-((S)-2-cyanopyrrolidin-1-yl)-2-oxoethyl)pyrrolidin-3-yl)-5-methylbenzofuran-3-carboxamide]
 | 17.7 nM |  | 1.3% | Cc1ccc2c(C(=O)N[C@H]3CCN(CC(=O)N4CCC[C@H]4C#N)C3)coc2c1 [Example 53, N—((S)-1-(2-((S)-2-cyanopyrrolidin-1-yl)-2-oxoethyl)pyrrolidin-3-yl)-6-methylbenzofuran-3-carboxamide]
 | 20 nM |  | 1.1% | N#C[C@@H]1CCCN1C(=O)CN1CC[C@H](NC(=O)c2cccc3occc23)C1 [Example 55, N—((S)-1-(2-((S)-2-cyanopyrrolidin-1-yl)-2-oxoethyl)pyrrolidin-3-yl)benzofuran-4-carboxamide]
 | 45.2 nM |  | 2.4% | N#C[C@@H]1CCCN1C(=O)CN1CC[C@H](NC(=O)c2ccc3occc3c2)C1 [Example 56, N—((S)-1-(2-((S)-2-cyanopyrrolidin-1-yl)-2-oxoethyl)pyrrolidin-3-yl)benzofuran-5-carboxamide]
No inhibition** | 62.5 nM |  |  | N#C[C@@H]1CCCN1C(=O)CN1CC[C@H](NC(=O)c2cccc3ccoc23)C1 [Example 58, N—((S)-1-(2-((S)-2-cyanopyrrolidin-1-yl)-2-oxoethyl)pyrrolidin-3-yl)benzofuran-7-carboxamide]
No inhibition** |  | 33.4% |  | N#C[C@@H]1CCCN1C(=O)CN1CC[C@H](NS(=O)(=O)c2cc3ccccc3o2)C1 [Example 59, N—((S)-1-(2-((S)-2-cyanopyrrolidin-1-yl)-2-oxoethyl)pyrrolidin-3-yl)benzofuran-2-sulfonamide]
No inhibition** |  | 44.2% |  | N#C[C@@H]1CCCN1C(=O)CN1CC[C@H](NS(=O)(=O)c2cc3ccccc3s2)C1 [Example 60, N—((S)-1-(2-((S)-2-cyanopyrrolidin-1-yl)-2-oxoethyl)pyrrolidin-3-yl)benzo[b]thiophene-2-sulfonamide]
No inhibition** | 75.1 nM |  |  | N#C[C@@H]1CCCN1C(=O)CN1CC[C@H](Oc2cccc3ccccc23)C1 [Example 62, (S)-1-(2-((S)-3-(naphthalen-1-yloxy)pyrrolidin-1-yl)acetyl)pyrrolidine-2-carbonitrile]
No inhibition** | 130 nM |  |  | N#C[C@@H]1CCCN1C(=O)CN1CC[C@H](Oc2ccc3ncccc3c2)C1 [Example 63, (S)-1-(2-((S)-3-(quinolin-6-yloxy)pyrrolidin-1-yl)acetyl)pyrrolidine-2-carbonitrile]
No inhibition** |  | 64% |  | N#C[C@@H]1CCCN1C(=O)CN1CC[C@H](Oc2ccc3c(c2)OCO3)C1 [Example 67, (S)-1-(2-((S)-3-(benzo[d][1,3]dioxol-5-yloxy)pyrrolidin-1-yl)acetyl)pyrrolidine-2-carbonitrile]
 | 64.3 nM |  | 8% | N#C[C@@H]1CCCN1C(=O)CN1CC[C@H](Oc2cc3ccccc3cn2)C1 [Example 69, (S)-1-(2-((S)-3-(isoquinolin-3-yloxy)pyrrolidin-1-yl)acetyl)pyrrolidine-2-carbonitrile]
